Like-named read-outs stand apart in the source and are kept apart here.
Key:
melanoma cell lines = experiment: Cell based assay, cell viability (CellTiter-Glo), melanoma cell lines; settings: Homo sapiens; LOX-IMVI cell line
Method in brief: (§1)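 Seed cells after trypsin-EDTA treatment, hold 24 h at constant temperature, then add compound to a final 0 to 2 μM. Culture 72 h more and measure viability via ATP detection.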

[1] = tested on: cervical carcinoma cell lines; experiment: Cell based assay, cell viability (CellTiter-Glo), cervical carcinoma cell lines; settings: Homo sapiens; HeLa cells
[2] = tested on: breast cancer cell lines (e.g. MDA-MB-231, SK-BR-3, MDA-MB-468, HCC1954); experiment: Cell based assay, cell viability (CellTiter-Glo), breast cancer cell lines
Method in brief: as §1

[3] = Breast cancer cell line MDA-MB-231-L/DOX, 72 hours, CellTiter-Glo, read-out: IC50, MDA-MB-231-L/DOX
[4] = Homo sapiens, Breast cancer cell line BT-20, 72 hours, CellTiter-Glo, read-out: IC50, BT-20
[5] = Homo sapiens, Breast cancer cell line HCC1395, 72 hours, CellTiter-Glo, read-out: IC50, HCC1395
[6] = Homo sapiens, Breast cancer cell line HCC1954, 72 hours, CellTiter-Glo, read-out: IC50, HCC1954
[7] = Homo sapiens, Breast cancer cell line JIMT-1, 72 hours, CellTiter-Glo, read-out: IC50, JIMT-1
[8] = Homo sapiens, Breast cancer cell line MCF7, 72 hours, CellTiter-Glo, read-out: IC50, MCF7
[9] = Homo sapiens, Breast cancer cell line MDA-MB-231, 72 hours, CellTiter-Glo, read-out: IC50, MDA-MB-231
[10] = Homo sapiens, Breast cancer cell line MDA-MB-468, 72 hours, CellTiter-Glo, read-out: IC50, MDA-MB-468
[11] = Homo sapiens, Breast cancer cell line SK-BR-3, 72 hours, CellTiter-Glo, read-out: IC50, SK-BR-3
[12] = Homo sapiens, BT-20 cells, 72 hours treatment, CellTiter-Glo cell viability, read-out: IC50, Breast cancer cell line BT-20
[13] = Homo sapiens, HCC1395 cells, 72 hours treatment, CellTiter-Glo cell viability, read-out: IC50, Breast cancer cell line HCC1395
[14] = Homo sapiens, HCC1954 cells, 72 hours treatment, CellTiter-Glo cell viability, read-out: IC50, Breast cancer cell line HCC1954
[15] = Homo sapiens, JIMT-1 cells, 72 hours treatment, CellTiter-Glo cell viability, read-out: IC50, Breast cancer cell line JIMT-1
[16] = Homo sapiens, MCF7 cells, 72 hours treatment, CellTiter-Glo cell viability, read-out: IC50, Breast cancer cell line MCF7
[17] = Homo sapiens, MDA-MB-231 cells, 72 hours treatment, CellTiter-Glo cell viability, read-out: IC50, Breast cancer cell line MDA-MB-231
[18] = Homo sapiens, MDA-MB-468 cells, 72 hours treatment, CellTiter-Glo cell viability, read-out: IC50, Breast cancer cell line MDA-MB-468
[19] = Homo sapiens, SK-BR-3 cells, 72 hours treatment, CellTiter-Glo cell viability, read-out: IC50, Breast cancer cell line SK-BR-3
[20] = MDA-MB-231-L/DOX cells, 72 hours treatment, CellTiter-Glo cell viability, read-out: IC50, Breast cancer cell line MDA-MB-231-L/DOX

Structure (SMILES) | IC50 (melanoma cell lines) [nM] | IC50 [1] [nM] | IC50 [2, 3] [nM] | IC50 [2, 4] [nM] | IC50 [2, 5] [nM] | IC50 [2, 6] [nM] | IC50 [2, 7] [nM] | IC50 [2, 8] [nM] | IC50 [2, 9] [nM] | IC50 [2, 10] [nM] | IC50 [2, 11] [nM] | IC50 [2, 12] [nM] | IC50 [2, 13] [nM] | IC50 [2, 14] [nM] | IC50 [2, 15] [nM] | IC50 [2, 16] [nM] | IC50 [2, 17] [nM] | IC50 [2, 18] [nM] | IC50 [2, 19] [nM] | IC50 [2, 20] [nM]
CC(=O)c1c([S+]([O-])Cc2ccc(C(C)(C)C)cc2)[nH]c2c(Br)ccc(Cl)c2c1=O (centres unmarked) [Compound 60, 3-acetyl-8-bromo-2-((4-(tert-butyl)benzyl)sulfinyl)-5-chloroquinolin-4(1H)-one] | 1670 | > 10000 | > 2000 | > 2000 | > 10000 | > 2000 | > 10000 | > 2000 | > 2000 | > 2000 | 1880 |  |  |  |  |  |  |  |  | 
CC(=O)c1c([S+]([O-])Cc2cccnc2)[nH]c2c(Br)ccc(Cl)c2c1=O (centres unmarked) [Compound 84, 3-acetyl-8-bromo-5-chloro-2-((pyridin-3-ylmethyl)sulfinyl)quinolin-4(1H)-one] | 1450 | > 10000 |  |  |  |  |  |  |  |  |  | > 2000 | > 10000 | 1120 | > 10000 | > 2000 | 1600 | 1040 | 760 | > 2000
CC(=O)c1c([S+]([O-])Cc2ccc([N+](=O)[O-])cc2)[nH]c2c(Br)ccc(Cl)c2c1=O (centres unmarked) [Compound 33, 3-acetyl-8-bromo-5-chloro-2-((4-nitrobenzyl)sulfinyl)quinolin-4(1H)-one] | 1130 | > 10000 | > 2000 | > 2000 | > 10000 | > 2000 | > 10000 | > 2000 | > 2000 | > 2000 | 1000 |  |  |  |  |  |  |  |  | 
COc1cc(C[S+]([O-])c2[nH]c3c(Br)ccc(Cl)c3c(=O)c2C(C)=O)cc(OC)c1 (centres unmarked) [Compound 59, 3-acetyl-8-bromo-5-chloro-2-((3,5-dimethoxybenzyl)sulfinyl)quinolin-4(1H)-one] | 1060 | > 10000 | > 2000 | > 2000 | > 10000 | > 2000 | > 10000 | > 2000 | > 2000 | > 2000 | 1080 |  |  |  |  |  |  |  |  | 
CC(=O)c1c([S+]([O-])Cc2ccc(F)c(Cl)c2)[nH]c2c(Br)ccc(Cl)c2c1=O (centres unmarked) [Compound 31, 3-acetyl-8-bromo-5-chloro-2-((3-chloro-4-fluorobenzyl)sulfinyl)quinolin-4(1H)-one] | 1110 | > 10000 | > 2000 | > 2000 | > 10000 | > 2000 | > 10000 | > 2000 | 1330 | > 2000 | 950 |  |  |  |  |  |  |  |  | 
CC(=O)c1c([S+]([O-])Cc2c(F)cccc2Cl)[nH]c2c(Br)ccc(Cl)c2c1=O (centres unmarked) [Compound 74, 3-acetyl-8-bromo-5-chloro-2-((2-chloro-6-fluorobenzyl)sulfinyl)quinolin-4(1H)-one] | 1260 | > 10000 | > 2000 | > 2000 | > 10000 | > 2000 | > 10000 | > 2000 | > 2000 | > 2000 | 1060 |  |  |  |  |  |  |  |  | 
CC(=O)c1c([S+]([O-])Cc2ccc(C(F)(F)F)cc2)[nH]c2c(Br)ccc(Cl)c2c1=O (centres unmarked) [Compound 70, 3-acetyl-8-bromo-5-chloro-2-((4-(trifluoromethyl)benzyl)sulfinyl)quinolin-4(1H)-one] | 1190 | > 10000 | > 2000 | > 2000 | > 10000 | > 2000 | > 10000 | > 2000 | > 2000 | > 2000 | 1210 |  |  |  |  |  |  |  |  | 
CC(=O)c1c([S+]([O-])Cc2ccc(OC(F)(F)F)cc2)[nH]c2c(Br)ccc(Cl)c2c1=O (centres unmarked) [Compound 71, 3-acetyl-8-bromo-5-chloro-2-((4-(trifluoromethoxy)benzyl)sulfinyl)quinolin-4(1H)-one] | 1410 | > 10000 | > 2000 | > 2000 | > 10000 | > 2000 | > 10000 | > 2000 | > 2000 | > 2000 | 1550 |  |  |  |  |  |  |  |  | 
CC(=O)c1c([S+]([O-])Cc2ccc(F)cc2F)[nH]c2c(Br)ccc(Cl)c2c1=O (centres unmarked) [Compound 29, 3-acetyl-8-bromo-5-chloro-2-((2,4-difluorobenzyl)sulfinyl)quinolin-4(1H)-one] | 1240 | > 10000 | > 2000 | > 2000 | > 10000 | > 2000 | > 10000 | > 2000 | > 2000 | > 2000 | 850 |  |  |  |  |  |  |  |  | 
CC(=O)c1c([S+]([O-])Cc2ccc([S+]([O-])C(F)(F)F)cc2)[nH]c2c(Br)ccc(Cl)c2c1=O (centres unmarked) [Compound 64, 3-acetyl-8-bromo-5-chloro-2-((4-((trifluoromethyl)sulfinyl)benzyl)sulfinyl)quinolin-4(1H)-one] | 1050 | > 10000 | > 2000 | > 2000 | > 10000 | > 2000 | > 10000 | > 2000 | > 2000 | > 2000 | 1030 |  |  |  |  |  |  |  |  | 
CC(=O)c1c([S+]([O-])Cc2cc(F)cc(S(F)(F)(F)(F)F)c2)[nH]c2c(Br)ccc(Cl)c2c1=O (centres unmarked) [Compound 76, 3-acetyl-8-bromo-5-chloro-2-((3-fluoro-5-(pentafluoro--sulfanyl)benzyl)sulfinyl)quinolin-4(1H)-one] | 1370 | > 10000 | > 2000 | > 2000 | > 10000 | > 2000 | > 10000 | > 2000 | > 2000 | > 2000 | 1720 |  |  |  |  |  |  |  |  | 
COc1cc(S(F)(F)(F)(F)F)ccc1C[S+]([O-])c1[nH]c2c(Br)ccc(Cl)c2c(=O)c1C(C)=O (centres unmarked) [Compound 75, 3-acetyl-8-bromo-5-chloro-2-((2-methoxy-4-(pentafluoro--sulfanyl)benzyl)sulfinyl)quinolin-4(1H)-one] | 1040 | > 10000 | > 2000 | > 2000 | > 2000 | > 2000 | > 2000 | > 2000 | 1160 | > 2000 | 1700 |  |  |  |  |  |  |  |  | 
CC(=O)c1c([S+]([O-])Cc2c(F)c(F)c(F)c(F)c2F)[nH]c2c(Br)ccc(Cl)c2c1=O (centres unmarked) [Compound 78, 3-acetyl-8-bromo-5-chloro-2-(((perfluorophenyl)methyl)sulfinyl)quinolin-4(1H)-one] | 1370 | > 10000 | > 2000 | > 2000 | > 10000 | > 2000 | > 10000 | > 2000 | > 2000 | > 2000 | 1200 |  |  |  |  |  |  |  |  | 
COC(=O)c1ccc(C[S+]([O-])c2[nH]c3c(Cl)ccc(Cl)c3c(=O)c2C(C)=O)o1 (centres unmarked) [Compound 89, methyl 5-(((3-acetyl-5,8-dichloro-4-oxo-1,4-dihydroquinolin-2-yl)sulfinyl)methyl)furan-2-carboxylate] | 1650 | > 10000 |  |  |  |  |  |  |  |  |  | > 2000 | > 10000 | 1340 | > 10000 | > 2000 | > 2000 | 1360 | 1360 | > 2000
CC(=O)c1c([S+]([O-])Cc2cccc(F)c2)[nH]c2c(Br)ccc(Cl)c2c1=O (centres unmarked) [Compound 50, 3-acetyl-8-bromo-5-chloro-2-((3-fluorobenzyl)sulfinyl)quinolin-4(1H)-one] | 1510 | > 10000 | > 2000 | > 2000 | > 10000 | > 2000 | > 10000 | > 2000 | > 2000 | > 2000 | 1010 |  |  |  |  |  |  |  |  | 
CC(=O)c1c([S+]([O-])Cc2ccc(I)cc2)[nH]c2c(Cl)ccc(Cl)c2c1=O (centres unmarked) [Compound 83, 3-acetyl-5,8-dichloro-2-((4-iodobenzyl)sulfinyl)quinolin-4(1H)-one] | 1570 | > 10000 |  |  |  |  |  |  |  |  |  | > 2000 | > 10000 | 1450 | > 10000 | > 2000 | 1950 | 1760 | 1210 | > 2000
CC(=O)c1c([S+]([O-])Cc2ccc([N+](=O)[O-])cc2)[nH]c2c(Cl)ccc(Cl)c2c1=O (centres unmarked) [Compound 57, 3-acetyl-5,8-dichloro-2-((4-nitrobenzyl)sulfinyl)quinolin-4(1H)-one] | > 2000 | > 10000 | > 2000 | > 2000 | > 10000 | > 2000 | > 10000 | > 2000 | > 2000 | > 2000 | 1340 |  |  |  |  |  |  |  |  | 
CC(=O)c1c([S+]([O-])Cc2ccc(C#N)cc2)[nH]c2c(Br)ccc(Cl)c2c1=O (centres unmarked) [Compound 73, 4-(((3-acetyl-8-bromo-5-chloro-4-oxo-1,4-dihydroquinolin-2-yl)sulfinyl)methyl)benzonitrile] | 1670 | > 10000 | > 2000 | > 2000 | > 10000 | > 2000 | > 10000 | > 2000 | > 2000 | > 2000 | 1200 |  |  |  |  |  |  |  |  | 
CC(=O)c1c([S+]([O-])Cc2cc(Cl)ccc2Cl)[nH]c2c(Br)ccc(Cl)c2c1=O (centres unmarked) [Compound 44, 3-acetyl-8-bromo-5-chloro-2-((2,5-dichlorobenzyl)sulfinyl)quinolin-4(1H)-one] | 1640 | > 10000 | > 2000 | > 2000 | > 10000 | > 2000 | > 10000 | > 2000 | > 2000 | > 2000 | 1060 |  |  |  |  |  |  |  |  | 

From US11464770B2, “Anticancer pharmaceutical composition” (NATIONAL CANCER CENTER, priority 2016, dated 2022)
